Key:
[1] = target: Glutamate [NMDA] receptor; test: In vitro binding affinity against N-methyl-D-aspartate glutamate receptor using [3H]-[…] as radioligand; type: protein-complex assay
[2] = target: Glutamate receptor ionotropic kainate
Description: In vitro binding affinity against Ionotropic glutamate receptor kainate (kainic acid) using [3H]KAIN as radioligand

Rattus norvegicus = species: Rattus norvegicus; test: Electrophysiological study in rat cortical slice model; type: functional
[3] = target: Glutamate receptor ionotropic AMPA (Rattus norvegicus)
[4] = pKa value determined by potentiometric titrations. 4.6 is the equivalence volume; initial titrant volume is 9.5; type: physicochemical
[5] = pKa value determined by potentiometric titrations. 4.6 is the equivalence volume; initial titrant volume is 10.2; type: physicochemical
[6] = pKa value determined by potentiometric titrations. 4.5 is the equivalence volume; initial titrant volume is 9.5; type: physicochemical
[7] = pKa value determined by potentiometric titrations. 4.4 is the equivalence volume; initial titrant volume is 9.8; type: physicochemical
[8] = pKa value determined by potentiometric titrations. 5 is the equivalence volume; initial titrant volume is 9.6; type: physicochemical
[9] = pKa value determined by potentiometric titrations. 5.1 is the equivalence volume; initial titrant volume is 9.4; type: physicochemical
[10] = pKa value determined by potentiometric titrations. 5.3 is the equivalence volume; initial titrant volume is 9.8; type: physicochemical
[11] = pKa value determined by potentiometric titrations. 4.9 is the equivalence volume; initial titrant volume is 9.7; type: physicochemical
[12] = pKa value determined by potentiometric titrations. 5 is the equivalence volume; initial titrant volume is 9.7; type: physicochemical

| Compound | IC50 [1] | IC50 [2] | EC50 (Rattus norvegicus) | IC50 [3] | pKa [5] | pKa [6] | pKa [9] | pKa [10] | pKa [11] | pKa [12] | pKa [4] | pKa [7] | pKa [8] |
| --- | --- | --- | --- | --- | --- | --- | --- | --- | --- | --- | --- | --- | --- |
| Cn1cnc(-c2onc(O)c2CC(N)C(=O)O)n1 (stereo unspecified) | > 100 µM | > 100 µM | 11 µM | 0.7 µM |  |  |  |  |  |  | < 2.3 |  |  |
| NC(Cc1c(O)noc1-c1nccs1)C(=O)O (stereo unspecified) | > 100 µM | 4.9 µM | 2.3 µM | 0.094 µM |  |  |  |  |  |  |  | < 2 |  |
| Cn1nnc(-c2onc(O)c2CC(N)C(=O)O)n1 (stereo unspecified) | > 100 µM | 41 µM | 0.92 µM |  |  |  |  |  |  |  |  |  | 2.9 |
| Cc1onc(O)c1CC(N)C(=O)O [(R,S)-AMPA] | > 100 µM |  | 5.4 µM |  |  |  |  |  |  |  |  |  |  |

Continued, in another order:

| IC50 [1] | IC50 [2] | EC50 (Rattus norvegicus) | IC50 [3] | pKa [5] | pKa [6] | pKa [9] | pKa [10] | pKa [11] | pKa [12] | Compound | pKa [4] | pKa [7] | pKa [8] |
| --- | --- | --- | --- | --- | --- | --- | --- | --- | --- | --- | --- | --- | --- |
| > 100 µM | 58 µM | 63 µM | 1.5 µM | < 2.4 |  |  |  |  |  | NC(Cc1c(O)noc1-c1nc[nH]n1)C(=O)O (stereo unspecified) |  |  |  |
| > 100 µM | 16 µM | 93 µM | 5.8 µM |  | < 2.3 |  |  |  |  | Cn1ncnc1-c1onc(O)c1CC(N)C(=O)O (stereo unspecified) |  |  |  |
| > 100 µM | > 100 µM | > 1000 µM | 54 µM |  |  | 3.7 |  |  |  | Cn1nnnc1-c1onc(O)c1CC(N)C(=O)O (stereo unspecified) |  |  |  |
| > 100 µM | 74 µM | > 1000 µM | > 100 µM |  |  |  | < 3.4 |  |  | Cn1ccnc1-c1onc(O)c1CC(N)C(=O)O (stereo unspecified) |  |  |  |
| > 100 µM | > 100 µM | 550 µM | 48 µM |  |  |  |  | < 3.4 |  | NC(Cc1c(O)noc1-c1ncc[nH]1)C(=O)O (stereo unspecified) |  |  |  |
| > 100 µM | > 100 µM | > 1000 µM | 72 µM |  |  |  |  |  | < 3 | NC(Cc1c(O)noc1-c1nn[nH]n1)C(=O)O (stereo unspecified) |  |  |  |

— ChEMBL document CHEMBL1130350, “Heteroaryl analogues of AMPA. Synthesis and quantitative structure-activity relationships” (J Med Chem, 1997)
